# Experimental data as given in patent publication US20050197350A1, “Novel quinoline, tetrahydroquinazoline, and pyrimidine derivatives and methods of treatment related to the use thereof” (TAISHO PHARMACEUTICAL CO., LTD., priority 2003, published 2005).
# Tested on: MCH receptors
# Assay: MCH receptor activity class (method not given)
# Settings: not given
row,class,SMILES
1,1,"COc1cccc(C(=O)N[C@H]2CC[C@@H](Nc3nc(C)cc(N(C)C)n3)CC2)c1 [Example 2564, N-(cis-4-{[4-(dimethylamino)-6-methylpyrimidin-2-yl]amino}cyclohexyl)-3-methoxybenzamide]"

# Same assay, conditions: MCH receptor; class by percent of control at 10^-7 M or IC50
row,SMILES,class
1,CN(C)c1nc(N[C@H]2CC[C@@H](NC(=S)NC3CC4C=CC3C4)CC2)nc2c1CCCC2 (relative stereo) [compound 2067],3 (Class 3 The value of percent of control at 10^−7 M was more than 60% or the value of IC50 was more than 200 nM.)
2,CN(C)c1cc(N[C@H]2CC[C@@H](NC(=O)c3cc(-c4ccc(Cl)cc4)oc3C(F)(F)F)CC2)nc2ccccc12 [compound 140],3 (Class 3 The value of percent of control at 10^−7 M was more than 60% or the value of IC50 was more than 200 nM.)
3,CNC(=S)N[C@H]1CC[C@@H](Nc2nc3c(c(N(C)C)n2)CCCC3)CC1 [compound 1951],3 (Class 3 The value of percent of control at 10^−7 M was more than 60% or the value of IC50 was more than 200 nM.)
4,CN(C)c1cc(N[C@H]2CC[C@@H](NC(=O)c3ccccc3SC(F)F)CC2)nc2ccccc12 [compound 82],3 (Class 3 The value of percent of control at 10^−7 M was more than 60% or the value of IC50 was more than 200 nM.)
5,CN(C)c1nc(N[C@H]2CC[C@@H](NC(=S)Nc3ccccc3Br)CC2)nc2c1CCCC2 [compound 1963],3 (Class 3 The value of percent of control at 10^−7 M was more than 60% or the value of IC50 was more than 200 nM.)
6,"COc1cccc(C(=O)NC[C@H]2CC[C@@H](Nc3cc(N(C)C)c4ccccc4n3)CC2)c1 [compound 147, N-[(cis-4-{[4-(dimethylamino)quinolin-2-yl]amino}cyclohexyl)methyl]-3-methoxybenzamide]",3 (Class 3 The value of percent of control at 10^−7 M was more than 60% or the value of IC50 was more than 200 nM.)
7,CN(C)c1cc(N[C@H]2CC[C@@H](NC(=O)c3cccc(Br)c3)CC2)nc2ccccc12 [compound 21],1 (Class 1: The value of percent of control at 10^−7 M was less than 40% or the value of IC50 was less than 50 nM.)
8,CN(C)c1nc(N[C@H]2CC[C@@H](NC(=O)NC3CCN(C(=O)OCc4ccccc4)CC3)CC2)nc2c1CCCC2 [compound 1921],3 (Class 3 The value of percent of control at 10^−7 M was more than 60% or the value of IC50 was more than 200 nM.)
9,"CN(C)c1cc(N[C@H]2CC[C@@H](CNC(=O)c3cc(C(F)(F)F)cc(C(F)(F)F)c3)CC2)nc2ccccc12 [compound 205, N-[(cis-4-{[4-(dimethylamino)quinolin-2-yl]amino}cyclohexyl)methyl]-3,5-bis(trifluoromethyl)benzamide]",3 (Class 3 The value of percent of control at 10^−7 M was more than 60% or the value of IC50 was more than 200 nM.)

# Same assay, conditions: activity class 1-3: percent of control at 10^-7 M or IC50
row,SMILES,class
1,CN(C)c1nc(N[C@H]2CC[C@@H](NC(=O)Oc3ccccc3)CC2)nc2c1CCCC2 [compound 1592],3 (Class 3 The value of percent of control at 10^−7 M was more than 60% or the value of IC50 was more than 200 nM.)

# Same assay, conditions: activity class per percent of control at 10^-7 M or IC50
row,SMILES,class
1,CN(C)c1nc(N[C@H]2CC[C@@H](NC(=O)Cc3ccc(Oc4ccccc4)cc3)CC2)nc2c1CCCC2 [compound 1004],2 (Class 2: The value of percent of control at 10^−7 M was from 40% to 60% or the value of IC′50 was from 50 nM to 200 nM.)
2,CN(C)c1nc(N[C@H]2CC[C@@H](NC(=O)c3cc(Br)c(Br)o3)CC2)nc2c1CCCC2 [compound 982],1 (Class 1: The value of percent of control at 10^−7 M was less than 40% or the value of IC50 was less than 50 nM.)
3,COc1cc(CC(=O)N[C@H]2CC[C@@H](Nc3nc4c(c(N(C)C)n3)CCCC4)CC2)ccc1OCc1ccccc1 [compound 1012],3 (Class 3 The value of percent of control at 10^−7 M was more than 60% or the value of IC50 was more than 200 nM.)

# Same assay, conditions: class 1-3 by percent of control at 10^-7 M or IC50
row,SMILES,class
1,CN(C)c1ccnc(N[C@H]2CC[C@@H](CNC(=O)c3cccc(F)c3F)CC2)n1 [compound 446],3 (Class 3 The value of percent of control at 10^−7 M was more than 60% or the value of IC50 was more than 200 nM.)

# Same assay, conditions: class by percent of control at 10^-7 M or IC50
row,SMILES,class
1,COc1cccc(NC(=O)N[C@H]2CC[C@@H](Nc3nc4c(c(N(C)C)n3)CCCC4)CC2)c1 [compound 1834],3 (Class 3 The value of percent of control at 10^−7 M was more than 60% or the value of IC50 was more than 200 nM.)
2,CN(C)c1cc(N[C@H]2CC[C@@H](NC(=O)Cc3sc(-c4ccccc4)nc3-c3ccc(Cl)cc3)CC2)nc2ccccc12 [compound 761],3 (Class 3 The value of percent of control at 10^−7 M was more than 60% or the value of IC50 was more than 200 nM.)
3,CN(C)c1nc(N[C@H]2CC[C@@H](NC(=O)Nc3ccc4c(c3)OCCO4)CC2)nc2c1CCCC2 [compound 1731],3 (Class 3 The value of percent of control at 10^−7 M was more than 60% or the value of IC50 was more than 200 nM.)
4,CSc1ccc(Cl)c(C(=O)N[C@H]2CC[C@@H](Nc3cc(N(C)C)c4ccccc4n3)CC2)c1 [compound 781],3 (Class 3 The value of percent of control at 10^−7 M was more than 60% or the value of IC50 was more than 200 nM.)
5,Cc1ccc(S(=O)(=O)N[C@H](CN[C@H]2CC[C@@H](Nc3nc4c(c(N(C)C)n3)CCCC4)CC2)Cc2ccccc2)cc1 [compound 1491],1 (Class 1: The value of percent of control at 10^−7 M was less than 40% or the value of IC50 was less than 50 nM.)
6,COC(=O)[C@H](Cc1ccccc1)NC(=O)N[C@H]1CC[C@@H](Nc2cc(N(C)C)c3ccccc3n2)CC1 (relative stereo) [compound 2135],2 (Class 2: The value of percent of control at 10^−7 M was from 40% to 60% or the value of IC′50 was from 50 nM to 200 nM.)
7,C=CCSc1ncccc1C(=O)N[C@H]1CC[C@@H](Nc2cc(N(C)C)c3ccccc3n2)CC1 [compound 786],3 (Class 3 The value of percent of control at 10^−7 M was more than 60% or the value of IC50 was more than 200 nM.)
8,CN(C)c1ccnc(N[C@H]2CC[C@@H](CNC(=O)c3cn(Cc4ccccc4)c4ccccc34)CC2)n1 [compound 942],3 (Class 3 The value of percent of control at 10^−7 M was more than 60% or the value of IC50 was more than 200 nM.)
9,COc1cc(C)c(CNC[C@H]2CC[C@@H](Nc3nc4c(c(N(C)C)n3)CCCC4)CC2)cc1C [compound 1437],2 (Class 2: The value of percent of control at 10^−7 M was from 40% to 60% or the value of IC′50 was from 50 nM to 200 nM.)
10,CN(C)c1nc(N[C@H]2CC[C@@H](NC(=S)Nc3ccc(I)cc3)CC2)nc2c1CCCC2 [compound 1752],2 (Class 2: The value of percent of control at 10^−7 M was from 40% to 60% or the value of IC′50 was from 50 nM to 200 nM.)
11,COc1cccc(CNC[C@H]2CC[C@@H](Nc3nccc(N(C)C)n3)CC2)c1OC [compound 1297],3 (Class 3 The value of percent of control at 10^−7 M was more than 60% or the value of IC50 was more than 200 nM.)
12,COc1cccc(CNC[C@H]2CC[C@@H](Nc3cc(N(C)C)c4ccccc4n3)CC2)c1O [compound 1196],3 (Class 3 The value of percent of control at 10^−7 M was more than 60% or the value of IC50 was more than 200 nM.)
13,"CN(C)c1nc(N[C@H]2CC[C@@H](CNC(=O)Nc3c(Cl)cccc3Cl)CC2)nc2c1CCCC2 [compound 2491, N-(2,6-dichlorophenyl)-N′-[(cis-4-{[4-(dimethylamino)-5,6,7,8-tetrahydroquinazolin-2-yl]amino}cyclohexyl)methyl]urea]",1 (Class 1: The value of percent of control at 10^−7 M was less than 40% or the value of IC50 was less than 50 nM.)
14,COc1ccc(C(=O)N[C@H]2CC[C@@H](Nc3cc(N(C)C)c4ccccc4n3)CC2)cc1OCc1ccccc1 [compound 750],2 (Class 2: The value of percent of control at 10^−7 M was from 40% to 60% or the value of IC′50 was from 50 nM to 200 nM.)
15,CC(C)c1ccccc1NC(=S)N[C@H]1CC[C@@H](Nc2cc(N(C)C)c3ccccc3n2)CC1 [compound 2281],3 (Class 3 The value of percent of control at 10^−7 M was more than 60% or the value of IC50 was more than 200 nM.)
16,CCc1cccc(C)c1NC(=S)N[C@H]1CC[C@@H](Nc2nc3c(c(N(C)C)n2)CCCC3)CC1 [compound 1760],3 (Class 3 The value of percent of control at 10^−7 M was more than 60% or the value of IC50 was more than 200 nM.)
17,CN(C)c1ccnc(N[C@H]2CC[C@@H](CNCc3csc4ccccc34)CC2)n1 [compound 1299],3 (Class 3 The value of percent of control at 10^−7 M was more than 60% or the value of IC50 was more than 200 nM.)
18,CN(C)c1nc(N[C@H]2CC[C@@H](NCc3c[nH]nc3-c3ccc(C(F)(F)F)cc3)CC2)nc2c1CCCC2 [compound 1339],3 (Class 3 The value of percent of control at 10^−7 M was more than 60% or the value of IC50 was more than 200 nM.)
19,CN(C)c1ccnc(N[C@H]2CC[C@@H](NC(=O)C3(c4ccc(Cl)cc4)CCCC3)CC2)n1 [compound 317],2 (Class 2: The value of percent of control at 10^−7 M was from 40% to 60% or the value of IC′50 was from 50 nM to 200 nM.)

# Same assay, conditions: class by percent of control at 10^−7 M or IC50
row,SMILES,class
1,"Cc1cc(N(C)C)nc(N[C@H]2CC[C@@H](C(=O)NCc3cc(Cl)cc(Cl)c3)CC2)n1 [compound 2810, cis-N-(3,5-dichlorobenzyl)-4-{[4-(dimethylamino)-6-methylpyrimidin-2-yl]amino}cyclohexanecarboxamide]",1 (Class 1: The value of percent of control at 10^−7 M was less than 40% or the value of IC50 was less than 50 nM.)
2,"Cc1cccc(N(C)C(=O)N[C@H]2CC[C@@H](Nc3ncc(C)c(N(C)C)n3)CC2)c1 [compound 3023, N′-(cis-4-{[4-(dimethylamino)-5-methylpyrimidin-2-yl]amino}cyclohexyl)-N-methyl-N-(3-methylphenyl)urea]",1 (Class 1: The value of percent of control at 10^−7 M was less than 40% or the value of IC50 was less than 50 nM.)
3,Cc1cnc(N[C@H]2CC[C@@H](C(=O)Nc3ccccc3Br)CC2)nc1N(C)C [compound 2789],3 (Class 3 The value of percent of control at 10^−7 M was more than 60% or the value of IC50 was more than 200 nM.)
4,CN(C)c1nc(N[C@H]2CC[C@@H](NC(=O)c3ccc(F)c(F)c3)CC2)ncc1C(F)(F)F [compound 3006],3 (Class 3 The value of percent of control at 10^−7 M was more than 60% or the value of IC50 was more than 200 nM.)
